Reference: PubChem BioAssay AID2060486 (Molecular Pharmacology Branch, DTP, NCI, 2025)

System: IGROV1 complex spheroids (HUVEC, MSC), viability % test/control
Experiment: Anticancer human tumor IGROV1 cell line growth inhibition [GQUAD];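 also: spheroids exposed to compounds for 7 days before readout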;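 as to viability, T/C: 100% = DMSO vehicle control viability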
Settings: for IC50: curve of first compound; for viability, T/C: stronger effect = lower value
How it was run: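 Viability of tumor cells grown as complex spheroids with endothelial and stromal cells, exposed to drug combinations. Top concentration at or near clinical Cmax (else 10 microM), diluted in half-log increments.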

[1] = second compound 0.0316 µM, first compound 0.0316 µM
[2] = second compound 0.0316 µM, first compound 0.1 µM
[3] = second compound 0.0316 µM, first compound 0.316 µM
[4] = second compound 0.0316 µM, first compound 1 µM
[5] = second compound 0.0316 µM, first compound 3.16 µM
[6] = second compound 0.0316 µM, first compound 10 µM
[7] = second compound 0.1 µM, first compound 0.0316 µM
[8] = second compound 0.1 µM, first compound 0.1 µM
[9] = second compound 0.1 µM, first compound 0.316 µM
[10] = second compound 0.1 µM, first compound 1 µM
[11] = second compound 0.1 µM, first compound 3.16 µM
[12] = second compound 0.1 µM, first compound 10 µM
[13] = second compound 0.316 µM, first compound 0.0316 µM
[14] = second compound 0.316 µM, first compound 0.1 µM
[15] = second compound 0.316 µM, first compound 0.316 µM
[16] = second compound 0.316 µM, first compound 1 µM
[17] = second compound 0.316 µM, first compound 3.16 µM
[18] = second compound 0.316 µM, first compound 10 µM
[19] = second compound 1 µM, first compound 0.0316 µM
[20] = second compound 1 µM, first compound 0.1 µM
[21] = second compound 1 µM, first compound 0.316 µM
[22] = second compound 1 µM, first compound 1 µM
[23] = second compound 1 µM, first compound 3.16 µM
[24] = second compound 1 µM, first compound 10 µM
[25] = second compound 3.16 µM, first compound 0.0316 µM
[26] = second compound 3.16 µM, first compound 0.1 µM
[27] = second compound 3.16 µM, first compound 0.316 µM
[28] = second compound 3.16 µM, first compound 1 µM
[29] = second compound 3.16 µM, first compound 3.16 µM
[30] = second compound 3.16 µM, first compound 10 µM
[31] = second compound 10 µM, first compound 0.0316 µM
[32] = second compound 10 µM, first compound 0.1 µM
[33] = second compound 10 µM, first compound 0.316 µM
[34] = second compound 10 µM, first compound 1 µM
[35] = second compound 10 µM, first compound 3.16 µM
[36] = second compound 10 µM, first compound 10 µM

C#Cc1c(F)ccc2cc(O)cc(-c3ncc4c(N5CC6CCC(C5)N6)nc(OCC56CCCN5CC(F)C6)nc4c3F)c12 (stereo not drawn) + CN(C)c1ccc(Nc2c3ccc(NC(=O)CCN4CCCC4)cc3nc3cc(NC(=O)CCN4CCCC4)ccc23)cc1
IC50 (second compound 0.0316 µM): > 10000 nM
IC50 (second compound 0.1 µM): > 10000 nM
IC50 (second compound 0.316 µM): > 10000 nM
IC50 (second compound 1 µM): 8190 nM
IC50 (second compound 3.16 µM): 5090 nM
IC50 (second compound 10 µM): 378 nM
viability, T/C [1]: 106%
viability, T/C [2]: 76.6%
viability, T/C [3]: 97.9%
viability, T/C [4]: 78.1%
viability, T/C [5]: 84.5%
viability, T/C [6]: 62.2%
viability, T/C [7]: 97.3%
viability, T/C [8]: 83.7%
viability, T/C [9]: 88%
viability, T/C [10]: 84.3%
viability, T/C [11]: 93%
viability, T/C [12]: 62.1%
viability, T/C [13]: 87.8%
viability, T/C [14]: 99.1%
viability, T/C [15]: 76.3%
viability, T/C [16]: 86%
viability, T/C [17]: 89.5%
viability, T/C [18]: 54%
viability, T/C [19]: 86.1%
viability, T/C [20]: 89%
viability, T/C [21]: 86.7%
viability, T/C [22]: 73.6%
viability, T/C [23]: 74.1%
viability, T/C [24]: 44.8%
viability, T/C [25]: 86.4%
viability, T/C [26]: 85.4%
viability, T/C [27]: 87.7%
viability, T/C [28]: 79%
viability, T/C [29]: 66.2%
viability, T/C [30]: 27.9%
viability, T/C [31]: 50%
viability, T/C [32]: 50.4%
viability, T/C [33]: 59.8%
viability, T/C [34]: 38%
viability, T/C [35]: 17.2%
viability, T/C [36]: 5.16%

CC(C)(O)C1CCC(Nc2ccc3ncc(-c4cccc(C(F)(F)F)c4)n3n2)CC1 (stereo not drawn) + Cc1cnc(CNC(=O)c2c(=O)c3ccc(N4CCCN(C)CC4)nc3n3c2sc2ccccc23)cn1
IC50 (second compound 0.0316 µM): 429 nM
IC50 (second compound 0.1 µM): < 31.6 nM
IC50 (second compound 0.316 µM): < 31.6 nM
IC50 (second compound 1 µM): < 31.6 nM
IC50 (second compound 3.16 µM): < 31.6 nM
IC50 (second compound 10 µM): < 31.6 nM
viability, T/C [1]: 71.3%
viability, T/C [2]: 68.4%
viability, T/C [3]: 55.7%
viability, T/C [4]: 34%
viability, T/C [5]: 20.2%
viability, T/C [6]: 16.9%
viability, T/C [7]: 35.6%
viability, T/C [8]: 32.7%
viability, T/C [9]: 33.9%
viability, T/C [10]: 26%
viability, T/C [11]: 14.1%
viability, T/C [12]: 10.2%
viability, T/C [13]: 24.9%
viability, T/C [14]: 25.8%
viability, T/C [15]: 17.4%
viability, T/C [16]: 20.5%
viability, T/C [17]: 14.8%
viability, T/C [18]: 11.4%
viability, T/C [19]: 17%
viability, T/C [20]: 17.6%
viability, T/C [21]: 16.2%
viability, T/C [22]: 16.5%
viability, T/C [23]: 9.63%
viability, T/C [24]: 7.48%
viability, T/C [25]: 12.5%
viability, T/C [26]: 9.36%
viability, T/C [27]: 10.4%
viability, T/C [28]: 10.4%
viability, T/C [29]: 7.96%
viability, T/C [30]: 1.27%
viability, T/C [31]: 10%
viability, T/C [32]: 9.42%
viability, T/C [33]: 9.42%
viability, T/C [34]: 5.73%
viability, T/C [35]: 8.46%
viability, T/C [36]: 0.12%

O=c1[nH]cc(F)c(=O)[nH]1 + Cc1[nH]c2ccc(F)cc2c1-c1nc2c3cccnc3c3ncccc3c2[nH]1
IC50 (second compound 0.0316 µM): 6750 nM
IC50 (second compound 0.1 µM): 5500 nM
IC50 (second compound 0.316 µM): 4000 nM
IC50 (second compound 1 µM): < 31.6 nM
IC50 (second compound 3.16 µM): < 31.6 nM
IC50 (second compound 10 µM): < 31.6 nM
viability, T/C [1]: 104%
viability, T/C [2]: 83.6%
viability, T/C [3]: 103%
viability, T/C [4]: 80.3%
viability, T/C [5]: 82.6%
viability, T/C [6]: 34.5%
viability, T/C [7]: 96.1%
viability, T/C [8]: 104%
viability, T/C [9]: 84%
viability, T/C [10]: 69.5%
viability, T/C [11]: 80.8%
viability, T/C [12]: 27.8%
viability, T/C [13]: 79.6%
viability, T/C [14]: 67.5%
viability, T/C [15]: 77.1%
viability, T/C [16]: 70.8%
viability, T/C [17]: 55.4%
viability, T/C [18]: 24.3%
viability, T/C [19]: 5.37%
viability, T/C [20]: 4.95%
viability, T/C [21]: 4.49%
viability, T/C [22]: 4.87%
viability, T/C [23]: 5.05%
viability, T/C [24]: 5.26%
viability, T/C [25]: 4.5%
viability, T/C [26]: 4.46%
viability, T/C [27]: 5.38%
viability, T/C [28]: 4.48%
viability, T/C [29]: 5.61%
viability, T/C [30]: 4.44%
viability, T/C [31]: 4.32%
viability, T/C [32]: 4.75%
viability, T/C [33]: 4.71%
viability, T/C [34]: 4.66%
viability, T/C [35]: 4.72%
viability, T/C [36]: 5.12%

Cc1cccc(N(C)C(=O)C2C(O)CCN2c2nc(C)cc(C(F)(F)F)c2C#N)c1 (stereo not drawn) + Cc1cnc(CNC(=O)c2c(=O)c3ccc(N4CCCN(C)CC4)nc3n3c2sc2ccccc23)cn1
IC50 (second compound 0.0316 µM): > 10000 nM
IC50 (second compound 0.1 µM): < 31.6 nM
IC50 (second compound 0.316 µM): < 31.6 nM
IC50 (second compound 1 µM): < 31.6 nM
IC50 (second compound 3.16 µM): < 31.6 nM
IC50 (second compound 10 µM): < 31.6 nM
viability, T/C [1]: 66.2%
viability, T/C [2]: 68%
viability, T/C [3]: 65.6%
viability, T/C [4]: 42%
viability, T/C [5]: 76.5%
viability, T/C [6]: 63%
viability, T/C [7]: 45.2%
viability, T/C [8]: 38.2%
viability, T/C [9]: 38.2%
viability, T/C [10]: 31.6%
viability, T/C [11]: 39.6%
viability, T/C [12]: 34.5%
viability, T/C [13]: 24.8%
viability, T/C [14]: 23.1%
viability, T/C [15]: 20.6%
viability, T/C [16]: 26.8%
viability, T/C [17]: 29.3%
viability, T/C [18]: 17.3%
viability, T/C [19]: 12.8%
viability, T/C [20]: 9.76%
viability, T/C [21]: 20.4%
viability, T/C [22]: 14.9%
viability, T/C [23]: 21.1%
viability, T/C [24]: 17.1%
viability, T/C [25]: 11.1%
viability, T/C [26]: 11.2%
viability, T/C [27]: 13.9%
viability, T/C [28]: 12.8%
viability, T/C [29]: 13.4%
viability, T/C [30]: 10.1%
viability, T/C [31]: 8.57%
viability, T/C [32]: 9.75%
viability, T/C [33]: 7.75%
viability, T/C [34]: 10.5%
viability, T/C [35]: 14.8%
viability, T/C [36]: 11.7%
